Assay results from patent publication US10568869B2, “Methods for diagnosing and treating prostate cancer” (Cornell University, priority 2012, dated 2020).

Assays:
[1] = system: LNCaP cells; assay: Cell proliferation (cell number per dish); format: cell-based, human; conditions: for effect on proliferation in cells treated with the sAC inhibitor KH7: co-treatment with KH7, 24 hours; for effect on proliferation: LNCaP control cells, H-89 3 μmol/L, RpcAMP 100 μmol/L
Description: (§1) FIG. 2 is a graph which illustrates experimental data depicting the effects of the sAC inhibitor KH7 on prostate cancer cell proliferation. Statistical analyses are presented for cellular cAMP content and cell number per dish (starting density: 150,000 cells/dish) 24 hours after KH7 treatment. Values are the mean±SEM (n=5-8). *p<0.05 vs. 0 μmol/L KH7.
(§2) FIG. 3A is an image depicting data from Western blot analysis of lysates of LNCaP cells after treatment with sAC-specific or scrambled siRNA for 72 hours (left panel) or after treatment with sAC-specific or scrambled shRNA for 72 hours (right panel). FIGS. 3B-D are graphs and images which illustrate experimental data depicting the effects of siRNA or shRNA transfection on cell proliferation (FIG. 3B), LDH activity in the cell culture medium (relative units (r.u.)) (FIG. 3C), and cleavage of caspase-3 (FIG. 3D). […] The Western blot data are representative of five independent experiments with similar results.
(§3) FIGS. 5A-5E are graphs and images which illustrate experimental data depicting that sAC controls proliferation and the cell cycle in a PKA-independent and EPAC-dependent manner. FIGS. 5A-5C are graphs depicting statistical analyses of cell number per dish (FIG. 5A), LDH activity in the cell culture medium (relative units (r.u.)) (FIG. 5B), and G2 phase populations (FIG. 5C). Treatments (all 24 hours) were as follows: […], 100 mol/liter 8-pCPT-cAMP (8-pCPT), 100 mol/liter N6-benzoyl-cAMP (6-Bnz), 3 mol/liter H-89, or 100 mol/liter (Rp)-cAMP-S(RpcAMP). […] FIGS. 5D and 5E are images depicting Western blot analysis of the active form of Rap1 (Rap1-GTP) and phosphorylated forms of B-Raf performed with LNCaP cell lysates. Treatment conditions were similar to those described for FIGS. 5A-5C. Treatment was performed for 18 hours. All Western blot data are representative of four to six independent experiments with similar results.
(§4) The androgen-sensitive LNCaP (ATCC-Nr. CRL-1740D) human prostate carcinoma cell line, the androgen-insensitive PC3 (ATCC-Nr. CRL-1435D) human prostate carcinoma cell line, and neuroblastoma cell line SH-SY5Y (ATCC-Nr. CRL-2266) were purchased from the American Type Culture Collection, and human normal prostate epithelial cell line PNT2 was purchased from Sigma-Aldrich (Cat. Nr. 95012613). Cells were expanded and frozen in aliquots within four weeks of purchase. Cells were thawed and cultured for no more than three further passages. PNT2 cells were cultured in medium RPMI1640 supplemented with 10% fetal calf serum, glutamine and antibiotics. All other cells were cultured in Dulbecco's modified Eagle's medium that was supplemented with 5% fetal calf serum, glutamine, and antibiotics. The cells (1.5×10^5) were seeded in culture medium with 2% fetal calf serum 24 hours prior to each experiment.
To further substantiate the role of sAC in cell growth and death, the sAC gene expression/sAC protein production was suppressed in LNCaP cells. Two different methods of sAC knockdown, lipofectamine-based transfection with sAC-specific siRNA or adenoviral transfection with shRNA, were used to further rule out the possibility of KH7 off-target effects. For lipofectamine-based siRNA transfection, LNCaP cells were treated with siRNA duplexes that consisted of four different predesigned sequences targeting the human sAC mRNA sequence (GenBank Accession No. NM_001167749; Dharmacon, Lafayette, Colo.; catalogue no. L-006353-00,). In the control group, cells were treated with scrambled non-targeting siRNA (Dharmacon, Lafayette, Colo.; catalogue no. D-001810-10). Cells were transfected following the manufacturer's instructions. Briefly, cells were seeded 1 day before transfection in Dulbecco's modified Eagle's medium that was supplemented with 2% fetal calf serum without antibiotics.

[2] = system: LNCaP cells; assay: LDH activity in the cell culture medium; format: cell-based, human; conditions: for effect on cytotoxicity (LDH activity): 24 hours, H-89 3 μmol/L, RpcAMP 100 μmol/L
Description: as §2, §3

[3] = system: LNCaP cells; assay: FACS-based cell cycle analysis; parameters: species or system human; conditions: for effect on distribution of the cell population within the cell cycle: 24 hours, H-89 3 μmol/L, RpcAMP 100 μmol/L
Text: (§5) Treatment conditions were similar to those described for FIGS. 4A-4D. All Western blot data are representative of three to five independent experiments with similar results.
as §3
To understand the mechanisms responsible for the anti-proliferative effect of sAC inhibition, cell cycle analysis was performed using FACS-based cell cycle analysis. Specifically, LNCaP cells were fixed with 70% alcohol, stained with propidium iodide, and treated with RNase (BD Biosciences, San Jose, Calif.). DNA content was analyzed using a FACSCALIBUR™ flow cytometer (BD Biosciences, San Jose, Calif.) and FLOWJO™ software.

[4] = system: LNCaP cells; assay: Western blot of Rap1-GTP, Rap1, phospho-B-Raf and B-Raf (EPAC activity); format: cell-based, human
Description: as §3
Production of sAC protein in the LNCaP and PC3 prostate carcinoma cell lines was analyzed by Western blot. In particular, cells were lysed in Laemmli buffer containing 2% SDS, 10% glycerol, 5% 2-mercaptoethanol, 0.002% bromphenol blue, and 0.0625 mol/liter Tris-HCl. Equal amounts of total proteins were separated on SDS-polyacrylamide gels and transferred to a nitrocellulose membrane. The following primary antibodies were used: sAC (clones R21 and R40; provided by Dr. J. Buck) and actin (Millipore, Billerica, Mass.). After incubation with peroxidase-linked and horseradish peroxidase-labeled secondary antibodies, specific bands were visualized by chemiluminescence using an ECL Plus kit. Equivalent sample loading was confirmed by stripping the membranes with RESTORE™ Western blot stripping buffer (Thermo Fisher Scientific, Rockford, Ill.), followed by treatment with anti-actin antibody.
To test the role of EPAC in proliferation control, the effects of inhibition of sAC on EPAC activity in LNCaP cells was examined.

[5] = system: LNCaP cells; assay: Cellular cAMP content after KH7 treatment; format: cell-based, human; conditions: 24 hours, dose-dependent
Description: as §1
as §4, with “experiment. […]” for “experiment.”

[6] = system: PC3 cells; assay: Cellular cAMP content after KH7 treatment; format: cell-based, human; conditions: PC3, 24 hours, dose-dependent
Description: as §1
as §4, with “experiment. […]” for “experiment.”

[7] = system: PC3 cells; assay: Cell proliferation (cell number per dish); format: cell-based, human; conditions: PC3, 24 hours, dose-dependent
Description: as §1
as §4, with “experiment. […]” for “experiment.”

[8] = system: PC3 and LNCaP cells; assay: Cell growth and death analysis after 48 hours KH7 (LDH release, subG1, caspase-3 cleavage); format: cell-based, human; conditions: 20 μmol/L
Text: as §4
Treatment with KH7 reduced the intracellular cAMP content and suppressed cell proliferation in a dose-dependent manner in both cell lines with a maximal effect at 20 μmol/L, as shown in FIG. 2.

[9] = system: LNCaP cells; assay: Caspase-3 cleavage (Western blot); format: cell-based, human
Description: as §2, §5
Production of sAC protein in the LNCaP and PC3 prostate carcinoma cell lines was analyzed by Western blot. In particular, cells were lysed in Laemmli buffer containing 2% SDS, 10% glycerol, 5% 2-mercaptoethanol, 0.002% bromphenol blue, and 0.0625 mol/liter Tris-HCl. Equal amounts of total proteins were separated on SDS-polyacrylamide gels and transferred to a nitrocellulose membrane. The following primary antibodies were used: sAC (clones R21 and R40; provided by Dr. J. Buck) and actin (Millipore, Billerica, Mass.). […]

[10] = system: tmAC; conditions: up to 100 μmol/L; cited from earlier work
[11] = system: soluble guanylyl cyclase; conditions: up to 100 μmol/L; cited from earlier work
[12] = system: LNCaP cells; assay: Western blot of proteins controlling cell cycle progression (cyclins, CDK1); conditions: sAC inhibition
Description: Production of sAC protein in the LNCaP and PC3 prostate carcinoma cell lines was analyzed by Western blot. […] Equal amounts of total proteins were separated on SDS-polyacrylamide gels and transferred to a nitrocellulose membrane. […] After incubation with peroxidase-linked and horseradish peroxidase-labeled secondary antibodies, specific bands were visualized by chemiluminescence using an ECL Plus kit.
To investigate how sAC controls the G2/M transition, the expression of various cyclins and CDK1 was examined via Western blot as described above using the following primary antibodies: CDK1, phospho-CDK1, cyclin B1, cyclin D1, cyclin D3, and cyclin E2.

[13] = co-treatment with KH7, 24 hours

## Nc1ncnc2c1nc(Sc1ccc(Cl)cc1)n2[C@@H]1O[C@@H]2COP(=O)(O)O[C@H]2[C@H]1O [8-pCPT, 8-pCPT-cAMP]
[1]; LNCaP
  effect on proliferation in cells treated with the sAC inhibitor KH7: prevented
[2]; [13]
  effect on LDH release induced by sAC inhibition: prevented
[3]; [13]
  effect on cell cycle block induced by sAC inhibition: prevented
[4]; co-treatment with KH7
  effect on KH7-induced change of Rap1-GTP expression: reversed

## O=S(=O)(NCCNC/C=C/c1ccc(Br)cc1)c1cccc2cnccc12 [H-89]
[1]; 24 hours
  effect on proliferation: no effect
[2]
  effect on cytotoxicity (LDH activity): no effect
[3]
  effect on distribution of the cell population within the cell cycle: no effect

## CC(Sc1nc2ccccc2[nH]1)C(=O)N/N=C/c1cc(Br)ccc1O (stereo not drawn) [KH7, (E)-2-(1H-benzo[d]imidazol-2-ylthio)-N′-(5-bromo-2-hydroxybenzylidene)propanehydrazide]
[5]
  reduction of intracellular cAMP content, concentration of maximal effect: 20 µmol/L
[6]
  reduction of intracellular cAMP content, concentration of maximal effect: 20 µmol/L
[1]; LNCaP, 24 hours, dose-dependent
  suppression of cell proliferation, concentration of maximal effect: 20 µmol/L
[7]
  suppression of cell proliferation, concentration of maximal effect: 20 µmol/L
[8]
  apoptosis (subG1 population and cleavage of caspase-3): apoptosis
[9]; time course over 48 hours
  time at which cleavage of caspase-3 first appeared: 24 h
[3]; 24 hours, or siRNA transfection
  effect on cell cycle phases: cell cycle arrest at the G2 phase
[3]; time course over 48 hours
  time at which percentage of cells in G2-phase reached maximal value: 24 h
  time at which percentage of cells in G2-phase started to rise: 12 h
[4]; 18 hours
  Rap1-GTP (active form of Rap1) expression: significantly depleted
  phosphorylation of B-Raf: suppressed
[4]; KH7 treatment, n=6, 0.79+0.01 in control
  expression of Rap1, optical band density as ratio to actin band density: 0.81+0.07
[4]; KH7 treatment, n=8, 1.13+0.06 in control
  expression of B-Raf, optical band density as ratio to actin band density: 1.02+0.04
[10]
  effect on tmAC: no effect
[11]
  effect on soluble guanylyl cyclase: no effect
[12]
  expression of cyclin D1: not altered
  expression of cyclin D3: not altered
  expression of cyclin E2: not altered

## O=C(Nc1ncnc2c1ncn2[C@@H]1O[C@@H]2COP(=O)(O)O[C@H]2[C@H]1O)c1ccccc1 [N^6-benzoyl-cAMP]
[1]; 24 hours
  effect on proliferation: no effect
[1]; LNCaP
  effect on proliferation in cells treated with the sAC inhibitor KH7: no effect

## Nc1ncnc2c1ncn2[C@@H]1O[C@@H]2CO[P@@](O)(=S)O[C@H]2[C@H]1O [RpcAMP, (Rp)-cAMP-S]
[1]; 24 hours
  effect on proliferation: no effect
[2]
  effect on cytotoxicity (LDH activity): no effect
[3]
  effect on distribution of the cell population within the cell cycle: no effect

B1: shRNA: adenovirus-driven anti-sAC-directed shRNA, hairpin construct of SEQ ID NO: 10 targeting rat sAC mRNA (nucleic acid)
chain: GGGGTACCAAAAAAGTGGAAAGTGGAACGAAAGCATCTCTTGAATGCTTTCGTTCCACTTTCCACAAACAAGGCTTTTCTCCAAG
[1]; LNCaP, 72 hours, reduction from 6.37×10^5
  cell numbers after sAC knockdown: 3.56×10^5
[2]; 72 hours
  LDH release after sAC knockdown: induced LDH release
[9]; 72 hours
  caspase-3 cleavage after sAC knockdown: led to caspase-3 cleavage
